pIC50: −log10 of the molar value.
Legend:
Assay type in all cases: cell-based
TNF-α = experiment: Whole bovine blood assay, LPS-induced TNF-α; settings: fresh whole bovine blood, LPS stimulant; top drug concentration 250 μM
How it was run: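 Fresh heparinized bovine whole blood was preincubated with compound 4 h at 37 °C, then stimulated with LPS (final 1 μg/mL) for 18 h at 37 °C. Plasma TNF-α was quantified by MSD U-Plex chemiluminescent immunoassay, normalized to total protein (BCA), and IC50 taken for LPS-induced TNF-α inhibition.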

IL-1β = experiment: Whole bovine blood assay, LPS-induced IL-1β (inhibition / overstimulation); settings: drug concentration giving overstimulation (OS) of LPS-induced IL-1β, top concentration 250 μM
How it was run: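 IL-1β was quantified by MSD U-Plex chemiluminescence in plasma and normalized to BCA total protein. Bovine blood was pretreated 4 h at 37 °C with compound dilutions before 18 h LPS challenge (1 μg/mL final). Rising IL-1β at high concentrations was recorded as overstimulation.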

IL-6 = experiment: Whole bovine blood assay, LPS-induced IL-6; settings: fresh whole bovine blood, LPS stimulant; top drug concentration 250 μM

Structure (SMILES) | pIC50 (TNF-α) | pIC50 (IL-6) | minimal effective concentration (IL-1β)
CC[C@H]1OC(=O)[C@H](C)[C@@H](O)[C@H](C)[C@@H](O[C@@H]2O[C@H](C)C[C@H](N(C)S(=O)(=O)c3cc4ccccc4o3)[C@H]2Oc2ccc(F)cc2)[C@](C)(O)C[C@@H](C)CN[C@H](C)[C@@H](O)[C@]1(C)O [Example A-24] | 4.52 | 4.59 | 19 µM
CC[C@H]1OC(=O)[C@H](C)[C@@H](O[C@H]2C[C@@](C)(OC)[C@](O)(CN3CCN(C(C)C)CC3)[C@H](C)O2)[C@H](C)[C@@H](O[C@@H]2O[C@H](C)C[C@H](N(C)S(=O)(=O)Nc3ccc(C(F)(F)F)cc3)[C@H]2O)[C@](C)(O)C[C@@H](C)CN[C@H](C)[C@@H](O)[C@]1(C)O [Example C-14] | < 3.60 | < 3.60 | >250 µM
CC[C@H]1OC(=O)[C@H](C)[C@@H](O)[C@H](C)[C@@H](O[C@@H]2O[C@H](C)C[C@H](N(C)S(=O)(=O)c3nccn3C)[C@H]2Oc2ccc(F)cc2)[C@](C)(O)C[C@@H](C)CN[C@H](C)[C@@H](O)[C@]1(C)O [Example A-27] | 3.85 | 4.18 | 100 µM
CC[C@H]1OC(=O)[C@H](C)[C@@H](O[C@H]2C[C@@](C)(OC)[C@](O)(CN3CCN(S(C)(=O)=O)CC3)[C@H](C)O2)[C@H](C)[C@@H](O[C@@H]2O[C@H](C)C[C@H](N(C)S(=O)(=O)Nc3ccc(C(F)(F)F)cc3)[C@H]2O)[C@](C)(O)C[C@@H](C)CN[C@H](C)[C@@H](O)[C@]1(C)O [Example C-15] | 5.00 | 4.32 | 16 µM
CC[C@H]1OC(=O)[C@H](C)[C@@H](O[C@H]2C[C@@](C)(OC)[C@](O)(CNCCCNC(C)=O)[C@H](C)O2)[C@H](C)[C@@H](O[C@@H]2O[C@H](C)C[C@H](N(C)S(=O)(=O)Nc3ccc(C(F)(F)F)cc3)[C@H]2O)[C@](C)(O)C[C@@H](C)CN[C@H](C)[C@@H](O)[C@]1(C)O [Example B-88] | 4.66 | 4.40 | 14 µM
CC[C@H]1OC(=O)[C@H](C)[C@@H](O[C@H]2C[C@@](C)(OC)[C@](O)(CN3CCS(=O)(=O)CC3)[C@H](C)O2)[C@H](C)[C@@H](O[C@@H]2O[C@H](C)C[C@H](N(C)S(=O)(=O)Nc3ccc(C(F)(F)F)cc3)[C@H]2O)[C@](C)(O)C[C@@H](C)CN[C@H](C)[C@@H](O)[C@]1(C)O [Example C-13] | < 3.60 | < 3.60 | 6 µM
CC[C@H]1OC(=O)[C@H](C)[C@@H](O[C@H]2C[C@@](C)(OC)[C@](O)(CN3CCCCC3)[C@H](C)O2)[C@H](C)[C@@H](O[C@@H]2O[C@H](C)C[C@H](N(C)S(=O)(=O)c3ccccc3)[C@H]2Oc2ccccc2)[C@](C)(O)C[C@@H](C)CN[C@H](C)[C@@H](O)[C@]1(C)O [Example C-53] | 5.70 | 5.70 | 6 µM
CC[C@H]1OC(=O)[C@H](C)[C@@H](O[C@H]2C[C@@](C)(OC)[C@](O)(CN3CCCCC3)[C@H](C)O2)[C@H](C)[C@@H](O[C@@H]2O[C@H](C)C[C@H](N(C)S(=O)(=O)c3ccccc3)[C@H]2Oc2ccc(Cl)cn2)[C@](C)(O)C[C@@H](C)CN[C@H](C)[C@@H](O)[C@]1(C)O [Example C-48] | 5.40 | 5.22 | 6 µM
CC[C@H]1OC(=O)[C@H](C)[C@@H](O[C@H]2C[C@@](C)(OC)[C@](O)(Cn3cnnn3)[C@H](C)O2)[C@H](C)[C@@H](O[C@@H]2O[C@H](C)C[C@H](N(C)S(=O)(=O)c3ccc(Cl)cc3)[C@H]2O)[C@](C)(O)C[C@@H](C)CN[C@H](C)[C@@H](O)[C@]1(C)O [Example C-9] | 4.64 | 4.64 | 8 µM
CC[C@H]1OC(=O)[C@H](C)[C@@H](O[C@H]2C[C@@](C)(OC)[C@](O)(CNCCN3CCCC3)[C@H](C)O2)[C@H](C)[C@@H](O[C@@H]2O[C@H](C)C[C@H](N(C)S(=O)(=O)Nc3ccc(C(F)(F)F)cc3)[C@H]2O)[C@](C)(O)C[C@@H](C)CN[C@H](C)[C@@H](O)[C@]1(C)O [Example B-68] | 5.30 | 4.60 | 16 µM
CC[C@H]1OC(=O)[C@H](C)[C@@H](O[C@H]2C[C@@](C)(OC)[C@](O)(CN3CCCCC3)[C@H](C)O2)[C@H](C)[C@@H](O[C@@H]2O[C@H](C)C[C@H](N(C)S(=O)(=O)N(CC)CC)[C@H]2O)[C@](C)(O)C[C@@H](C)CN[C@H](C)[C@@H](O)[C@]1(C)O [Example C-35] | 4.48 | 4.64 | 11 µM
CC[C@H]1OC(=O)[C@H](C)[C@@H](O[C@H]2C[C@@](C)(OC)[C@](O)(CN3CCCCC3)[C@H](C)O2)[C@H](C)[C@@H](O[C@@H]2O[C@H](C)C[C@H](N(C)S(=O)(=O)c3ccccc3)[C@H]2Oc2ccc(F)cc2)[C@](C)(O)C[C@@H](C)CN[C@H](C)[C@@H](O)[C@]1(C)O [Example C-54] | 5.70 | 5.40 | 6 µM

The next lines start with results.

pIC50 (TNF-α) | pIC50 (IL-6) | Structure (SMILES) | minimal effective concentration (IL-1β)
4.47 | 4.00 | CC[C@H]1OC(=O)[C@H](C)[C@@H](O[C@H]2C[C@@](C)(OC)[C@](O)(CNCCCF)[C@H](C)O2)[C@H](C)[C@@H](O[C@@H]2O[C@H](C)C[C@H](N(C)S(=O)(=O)Nc3ccc(C(F)(F)F)cc3)[C@H]2O)[C@](C)(O)C[C@@H](C)CN[C@H](C)[C@@H](O)[C@]1(C)O [Example B-91] | 2 µM
4.80 | 5.10 | CCCNC[C@]1(O)[C@H](C)O[C@@H](O[C@H]2[C@H](C)[C@@H](O[C@@H]3O[C@H](C)C[C@H](N(C)S(=O)(=O)N4Cc5ccccc5C4)[C@H]3O)[C@](C)(O)C[C@@H](C)CN[C@H](C)[C@@H](O)[C@](C)(O)[C@@H](CC)OC(=O)[C@@H]2C)C[C@@]1(C)OC [Example B-45] | 3 µM
5.15 | 5.30 | CCCNC[C@]1(O)[C@H](C)O[C@@H](O[C@H]2[C@H](C)[C@@H](O[C@@H]3O[C@H](C)C[C@H](N(Cc4ccc(OC)cc4)S(=O)(=O)c4ccc(OC)cc4)[C@H]3O)[C@](C)(O)C[C@@H](C)CN[C@H](C)[C@@H](O)[C@](C)(O)[C@@H](CC)OC(=O)[C@@H]2C)C[C@@]1(C)OC [Example B-147] | 1 µM
5.00 | 5.00 | CCCNC[C@]1(O)[C@H](C)O[C@@H](O[C@H]2[C@H](C)[C@@H](O[C@@H]3O[C@H](C)C[C@H](N(Cc4ccc(OC)cc4)S(=O)(=O)c4nccn4C)[C@H]3O)[C@](C)(O)C[C@@H](C)CN[C@H](C)[C@@H](O)[C@](C)(O)[C@@H](CC)OC(=O)[C@@H]2C)C[C@@]1(C)OC [Example B-146] | 2 µM
4.07 | 4.59 | CCCNC[C@]1(O)[C@H](C)O[C@@H](O[C@H]2[C@H](C)[C@@H](O[C@@H]3O[C@H](C)C[C@H](N(C)S(=O)(=O)NC4CCCCC4)[C@H]3O)[C@](C)(O)C[C@@H](C)CN[C@H](C)[C@@H](O)[C@](C)(O)[C@@H](CC)OC(=O)[C@@H]2C)C[C@@]1(C)OC [Example B-56] | 16 µM
5.15 | 5.05 | CCCNC[C@]1(O)[C@H](C)O[C@@H](O[C@H]2[C@H](C)[C@@H](O[C@@H]3O[C@H](C)C[C@H](N(C)S(=O)(=O)c4ccc(Cl)cc4)[C@H]3Oc3ccc(F)cc3)[C@](C)(O)C[C@@H](C)CN[C@H](C)[C@@H](O)[C@](C)(O)[C@@H](CC)OC(=O)[C@@H]2C)C[C@@]1(C)OC [Example B-106] | 3 µM
5.15 | 5.10 | CCCNC[C@]1(O)[C@H](C)O[C@@H](O[C@H]2[C@H](C)[C@@H](O[C@@H]3O[C@H](C)C[C@H](N(Cc4ccccc4)S(=O)(=O)c4nccn4C)[C@H]3O)[C@](C)(O)C[C@@H](C)CN[C@H](C)[C@@H](O)[C@](C)(O)[C@@H](CC)OC(=O)[C@@H]2C)C[C@@]1(C)OC [Example B-143] | 2 µM
5.10 | 5.05 | CCCNC[C@]1(O)[C@H](C)O[C@@H](O[C@H]2[C@H](C)[C@@H](O[C@@H]3O[C@H](C)C[C@H](N(C)S(=O)(=O)c4nccn4C)[C@H]3Oc3ccc(Cl)cc3)[C@](C)(O)C[C@@H](C)CN[C@H](C)[C@@H](O)[C@](C)(O)[C@@H](CC)OC(=O)[C@@H]2C)C[C@@]1(C)OC [Example B-136] | 6 µM
4.40 | 4.14 | CCCNC[C@]1(O)[C@H](C)O[C@@H](O[C@H]2[C@H](C)[C@@H](O[C@@H]3O[C@H](C)C[C@H](N(C)S(=O)(=O)c4nccn4C)[C@H]3Oc3cccc([S+](C)[O-])c3)[C@](C)(O)C[C@@H](C)CN[C@H](C)[C@@H](O)[C@](C)(O)[C@@H](CC)OC(=O)[C@@H]2C)C[C@@]1(C)OC (stereo partly drawn) [Example B-139] | 40 µM
4.77 | 4.08 | CCCNC[C@]1(O)[C@H](C)O[C@@H](O[C@H]2[C@H](C)[C@@H](O[C@@H]3O[C@H](C)C[C@H](N(C)S(=O)(=O)c4nccn4C)[C@H]3Oc3cccc(CO)c3)[C@](C)(O)C[C@@H](C)CN[C@H](C)[C@@H](O)[C@](C)(O)[C@@H](CC)OC(=O)[C@@H]2C)C[C@@]1(C)OC [Example B-134] | 40 µM
4.89 | 5.10 | CCCNC[C@]1(O)[C@H](C)O[C@@H](O[C@H]2[C@H](C)[C@@H](O[C@@H]3O[C@H](C)C[C@H](N(C)S(=O)(=O)N4CCc5ccccc5C4)[C@H]3O)[C@](C)(O)C[C@@H](C)CN[C@H](C)[C@@H](O)[C@](C)(O)[C@@H](CC)OC(=O)[C@@H]2C)C[C@@]1(C)OC [Example B-42] | 2 µM
